Legend:
Format in all cases: in vivo
[1] = system: LOLMU (Lolium multiflorum); experiment: post-emergence greenhouse test; conditions: 3.75 g ai/ha
Source text: (§1) For the post-emergence treatment, the test plants were first grown to a height of 3 to 20 cm, depending on the plant habit, and only then treated. Here, the herbicidal compositions were suspended or emulsified in water as distribution medium and sprayed using finely distributing nozzles.
(§2) The respective herbicides A and/or safener were formulated as 10% by weight strength suspension concentrate and introduced to the spray liquor with the amount of solvent system used for applying the active compound. Herbicide B and/or safener were used as commercially available formulations and introduced to the spray liquor with the amount of solvent system used for applying the active compound. In the examples, the solvent used was water.
(§3) The test period extended over 20 days. During this time, the plants were tended, and their response to the treatments with active compound was evaluated.
(§4) In the following experiments, the herbicidal activity for the individual herbicide compounds (solo application) and of the mixture was assessed 8 days after treatment (8 DAT) and/or 20 days after treatment (20 DAT).
(§5) The evaluation for the damage caused by the chemical compositions was carried out using a scale from 0 to 100%, compared to the untreated control plants. Here, 0 means no damage and 100 means complete destruction of the plants.

[2] = system: AMBEL (Ambrosia artemisifolia); experiment: post-emergence greenhouse test; conditions: 3.75 g ai/ha
Source text: as §1, §2, §3, §4, §5

[3] = system: MERAN (Mercurialis annua); experiment: post-emergence greenhouse test; conditions: 7.5 g ai/ha
Source text: as §1, §2, §3, §4, §5

[4] = system: CHEAL (Chenopodium album); experiment: post-emergence greenhouse test; conditions: 15 g ai/ha
Source text: as §1, §2, §3, §4, §5

[5] = system: ECHCG (Echinochloa crus-galli); experiment: pre-emergence greenhouse test; conditions: for observed activity in % destruction: pre-emergence
Source text: (§6) For the pre-emergence treatment, directly after sowing the active compounds, which had been suspended or emulsified in water, were applied by means of finely distributed nozzles. The containers were irrigated gently to promote germination and growth and subsequently covered with transparent plastic hoods until plant had rooted. This cover caused uniform germination of the tests plants, unless this was adversely affected by active compounds.
as §2, §3, §4, §5

[6] = system: COMBE (Commelina benghalensis); experiment: pre-emergence greenhouse test; conditions: for observed activity in % destruction: pre-emergence
Source text: as §6, §2, §3, §4, §5

[7] = system: SOLNI (Solanum nigrum); experiment: pre-emergence greenhouse test
Source text: as §6, §2, §3, §4, §5

[8] = system: BRAPL (Brachiaria plantaginea); experiment: pre-emergence greenhouse test; conditions: pre-emergence, 15 g ai/ha
Source text: as §6, §2, §3, §4, §5

[9] = system: CCHEC (Cenchrus echinatus); experiment: pre-emergence greenhouse test
Source text: as §6, §2, §3, §4, §5

[10] = system: AMBEL (Ambrosia artemisifolia); experiment: pre-emergence greenhouse test
Source text: as §6, §2, §3, §4, §5

[11] = system: ALOMY (Alopecurus myosuroides); experiment: pre-emergence greenhouse test; conditions: for observed activity in % destruction: pre-emergence
Source text: as §6, §2, §3, §4, §5

[12] = system: PANDI (Panicum dichotomiflorum); experiment: pre-emergence greenhouse test; conditions: pre-emergence
Source text: as §6, §2, §3, §4, §5

[13] = system: AMARE (Amaranthus retroflexus); experiment: pre-emergence greenhouse test; conditions: for observed activity in % destruction: pre-emergence
Source text: as §6, §2, §3, §4, §5

[14] = system: SETVI (Setaria viridis); experiment: pre-emergence greenhouse test; conditions: for observed activity in % destruction: pre-emergence
Source text: as §6, §2, §3, §4, §5

[15] = system: PHBPU (Ipomoea purpurea); experiment: pre-emergence greenhouse test; conditions: PHBPU pre-emergence 15 g ai/ha
Source text: as §6, §2, §3, §4, §5

[16] = system: ERBVI; experiment: pre-emergence greenhouse test
Source text: as §6, §2, §3, §4, §5

[17] = system: PANMI (Panicum milliaceum); experiment: pre-emergence greenhouse test
Source text: as §6, §2, §3, §4, §5

CC(C)C1(C)N=C(c2nc3ccccc3cc2C(=O)O)NC1=O (centres unmarked) [imazaquin]
85%: observed % destruction 20 DAT ([7]; SOLNI pre-emergence 15 g ai/ha)
65%: observed activity in % destruction ([14]; 15 g ai/ha, 8 DAT)
60%: observed activity in % destruction ([8]; 20 DAT) | observed % destruction 20 DAT ([10]; AMBEL pre-emergence 7.5 g ai/ha) | observed activity in % destruction ([13]; 7.5 g ai/ha, 20 DAT)
30%: observed activity in % destruction ([11]; 3.75 g ai/ha, 20 DAT) | observed activity in % destruction ([11]; 15 g ai/ha, 8 DAT) | observed activity in % destruction ([14]; 3.75 g ai/ha, 8 DAT) | observed activity in % destruction ([14]; 3.75 g ai/ha, 20 DAT) | observed % destruction 20 DAT ([17]; PANMI pre-emergence 3.75 g ai/ha)
75%: observed % destruction 20 DAT ([11]; ALOMY pre-emergence 15 g ai/ha) | observed activity in % destruction ([11]; 15 g ai/ha, 20 DAT) | observed activity in % destruction ([12]; 7.5 g ai/ha, 20 DAT) | observed % destruction 20 DAT ([14]; SETVI pre-emergence 15 g ai/ha) | observed activity in % destruction ([14]; 15 g ai/ha, 20 DAT)
50%: observed activity in % destruction ([6]; 15 g ai/ha, 8 DAT) | observed % destruction 20 DAT ([10]; AMBEL pre-emergence 3.75 g ai/ha) | observed % destruction 20 DAT ([13]; AMARE pre-emergence 3.75 g ai/ha) | observed activity in % destruction ([13]; 3.75 g ai/ha, 20 DAT) | observed activity in % destruction ([13]; 7.5 g ai/ha, 8 DAT)
45%: observed % destruction 20 DAT ([6]; COMBE pre-emergence 7.5 g ai/ha) | observed activity in % destruction ([6]; 7.5 g ai/ha, 20 DAT) | observed activity in % destruction ([12]; 3.75 g ai/ha, 20 DAT) | observed % destruction 20 DAT ([17]; PANMI pre-emergence 15 g ai/ha)
35%: observed % destruction 20 DAT ([6]; COMBE pre-emergence 3.75 g ai/ha) | observed activity in % destruction ([6]; 3.75 g ai/ha, 20 DAT) | observed % destruction 20 DAT ([9]; CCHEC pre-emergence 15 g ai/ha)
0%: observed activity in % destruction ([1]; 8 DAT) | observed activity in % destruction ([1]; 20 DAT) | observed activity in % destruction ([3]; 20 DAT) | observed % destruction 20 DAT ([5]; ECHCG pre-emergence 3.75 g ai/ha) | observed % destruction 20 DAT ([5]; ECHCG pre-emergence 7.5 g ai/ha) | observed activity in % destruction ([5]; 7.5 g ai/ha, 8 DAT) | observed activity in % destruction ([5]; 7.5 g ai/ha, 20 DAT) | observed activity in % destruction ([11]; 3.75 g ai/ha, 8 DAT) | observed activity in % destruction ([12]; 3.75 g ai/ha, 8 DAT) | observed % destruction 20 DAT ([16]; ERBVI pre-emergence 3.75 g ai/ha)
40%: observed activity in % destruction ([6]; 7.5 g ai/ha, 8 DAT) | observed % destruction 20 DAT ([7]; SOLNI pre-emergence 3.75 g ai/ha) | observed activity in % destruction ([12]; 15 g ai/ha, 8 DAT) | observed activity in % destruction ([13]; 3.75 g ai/ha, 8 DAT) | observed % destruction 20 DAT [15] | observed % destruction 20 DAT ([17]; PANMI pre-emergence 7.5 g ai/ha)
70%: observed activity in % destruction ([6]; 15 g ai/ha, 20 DAT) | observed % destruction 20 DAT ([7]; SOLNI pre-emergence 7.5 g ai/ha) | observed % destruction 20 DAT ([13]; AMARE pre-emergence 15 g ai/ha)
20%: observed activity in % destruction ([2]; 8 DAT) | observed activity in % destruction ([2]; 20 DAT) | observed activity in % destruction ([3]; 8 DAT) | observed activity in % destruction ([4]; 8 DAT) | observed % destruction 20 DAT ([5]; ECHCG pre-emergence 15 g ai/ha) | observed activity in % destruction ([5]; 15 g ai/ha, 8 DAT) | observed activity in % destruction ([5]; 15 g ai/ha, 20 DAT) | observed activity in % destruction ([6]; 3.75 g ai/ha, 8 DAT) | observed activity in % destruction ([8]; 8 DAT) | observed % destruction 20 DAT ([9]; CCHEC pre-emergence 3.75 g ai/ha) | observed % destruction 20 DAT ([9]; CCHEC pre-emergence 7.5 g ai/ha) | observed activity in % destruction ([12]; 7.5 g ai/ha, 8 DAT) | observed % destruction 20 DAT ([16]; ERBVI pre-emergence 7.5 g ai/ha)
80%: observed % destruction 20 DAT ([10]; AMBEL pre-emergence 15 g ai/ha) | observed activity in % destruction ([12]; 15 g ai/ha, 20 DAT)
10%: observed activity in % destruction ([4]; 20 DAT)

From patent US20110015067A1, “Herbicidal Compositions Comprising Pyroxasulfone” (BASF SE, priority 2008, published 2011)
